Reference: patent US20110124588A1, “SYNERGISTIC ACTIVE INGREDIENT COMBINATIONS” (Bayer Cropscience AG, priority 2008, published 2011)
Where two headings read alike, the source gives them in different places.

Experiments:
Spodoptera frugiperda = Spodoptera frugiperda larvae test (sprayed cabbage leaves); format: in vivo, army worm (Spodoptera frugiperda) larvae; conditions: for pest or weed control at 0.8 g/ha / pest or weed control at 0.16 g/ha / pest or weed control at 100 g/ha / pest or weed control at 20 g/ha / pest or weed control at 4 g/ha: Spodoptera frugiperda
Description: The expected activity of a given combination of two active compounds can be calculated as follows, according to S. R. Colby, Weeds 15 (1967), 20-22:
X is the kill rate, expressed as a percentage of the untreated control, when employing active compound A at an application rate of m g/ha or in a concentration of m ppm, Y is the kill rate, expressed as a percentage of the untreated control, when employing active compound B at an application rate of n g/ha or in a concentration of n ppm and E is the kill rate, expressed as a percentage of the untreated control, when employing active compounds A and B at application rates of m and n g/ha or in a concentration of m and n ppm, then
(§1) If the actual kill rate exceeds the calculated value, the kill of the combination is superadditive, i.e. a synergistic effect is present. In this case, the actually observed kill rate must exceed the value calculated using the above formula for the expected kill rate (E).
(§2) solvents: 78 parts by weight of acetone • • 1.5 parts by weight of dimethylformamide emulsifier: 0.5 part by weight of alkylaryl polyglycol ether
To produce a suitable preparation of active compound, 1 part by weight of active compound is mixed with the stated amounts of solvents and emulsifier, and the concentrate is diluted with emulsifier-containing water to the desired concentration.
Cabbage leaves (Brassica oleracea) are treated by spraying with the active compound preparation of the desired concentration and are populated with larvae of the army worm (Spodoptera frugiperda) while the leaves are still moist.
After the desired period of time, the kill in % is determined 100% means that all caterpillars have been killed; 0% means that none of the caterpillars have been killed. The kill rates determined are entered into Colby's formula.

Myzus persicae = Myzus persicae test (spray treatment of infested cabbage leaves); format: in vivo, green peach aphid (Myzus persicae); conditions: for pest or weed control at 0.032 g/ha / pest or weed control at 0.16 g/ha / pest or weed control at 0.8 g/ha / pest or weed control at 0.0064 g/ha / pest or weed control at 4 g/ha: Myzus persicae
Description: as §1, §2
After the desired period of time, the kill in % is determined 100% means that all aphids have been killed; 0% means that none of the aphids have been killed. The kill rates determined are entered into Colby's formula.

Phaedon cochleariae = Phaedon cochleariae larvae test (sprayed cabbage leaves); format: in vivo, mustard beetle (Phaedon cochleariae) larvae; conditions: for pest or weed control at 4 g/ha / pest or weed control at 20 g/ha / pest or weed control at 0.16 g/ha / pest or weed control at 100 g/ha / pest or weed control at 0.8 g/ha: Phaedon cochleariae
Description: as §1
Solvents: 78 parts by weight of acetone • • 1.5 parts by weight of dimethylformamide Emulsifier: 0.5 part by weight of alkylaryl polyglycol ether
After the desired period of time, the kill in % is determined 100% means that all beetle larvae have been killed; 0% means that none of the beetle larvae have been killed. The kill rates determined are entered into Colby's formula.

[1] = 144 h, read-out: Kill in % after 6 d
[2] = single active compound, 0.8 g/ha, 2 d
[3] = 48 h, single active compound, 4 g/ha, 2 d, read-out: Kill in % after 2 d
[4] = 48 h, single active compound, 2 d, read-out: Kill in % after 2 d
[5] = 144 h, single active compound, 6 d, read-out: Kill in % after 6 d
[6] = 48 h, read-out: Kill in % after 2 d
[7] = 144 h, single active compound, 100 g/ha, 6 d, read-out: Kill in % after 6 d
[8] = 24 h, read-out: Kill in % after 1 d
[9] = single active compound, 4 g/ha, 6 d
[10] = single active compound, 0.8 g/ha, 6 d
[11] = 144 h, single active compound, 4 g/ha, 6 d, read-out: Kill in % after 6 d
[12] = 144 h, single active compound, 0.16 g/ha, 6 d, read-out: Kill in % after 6 d
[13] = 144 h, single active compound, 0.8 g/ha, 6 d, read-out: Kill in % after 6 d

## CC1(C)C(C=C(Cl)Cl)C1C(=O)OC(C#N)c1cccc(Oc2ccccc2)c1 (centres unmarked) [cypermethrin]
Spodoptera frugiperda; [1]
  pest or weed control at 0.8 g/ha: 50%
Myzus persicae; [1]
  pest or weed control at 0.032 g/ha: 0%
  pest or weed control at 0.16 g/ha: 0%
Phaedon cochleariae; [2]
  Kill in % after 2 d: 50%

## COC(=O)N(C(=O)N1COC2(C(=O)OC)Cc3cc(Cl)ccc3C2=N1)c1ccc(OC(F)(F)F)cc1 (centres unmarked) [indoxacarb]
Myzus persicae; [1]
  pest or weed control at 0.8 g/ha: 0%
Phaedon cochleariae; [3]
  pest or weed control at 4 g/ha: 0%
Phaedon cochleariae; [4]
  pest or weed control at 20 g/ha: 33%

## CC1(C)[C@H](/C=C(\Cl)C(F)(F)F)[C@@H]1C(=O)O[C@H](C#N)c1cccc(Oc2ccccc2)c1 [gamma-cyhalothrin]
Spodoptera frugiperda; [1]
  pest or weed control at 0.16 g/ha: 17%
Myzus persicae; [1]
  pest or weed control at 0.032 g/ha: 0%
Phaedon cochleariae; [5]
  pest or weed control at 0.16 g/ha: 0%

## CC1(C)C(/C=C(\Cl)C(F)(F)F)C1C(=O)OC(C#N)c1cccc(Oc2ccccc2)c1 (centres unmarked) [lambda-cyhalothrin]
Spodoptera frugiperda; [1]
  pest or weed control at 0.8 g/ha: 67%
Myzus persicae; [1]
  pest or weed control at 0.0064 g/ha: 0%
  pest or weed control at 0.032 g/ha: 0%
Phaedon cochleariae; [5]
  pest or weed control at 0.16 g/ha: 17%

## O=C(NC(=O)c1ccccc1Cl)Nc1ccc(OC(F)(F)F)cc1 [triflumuron]
Spodoptera frugiperda; [1]
  pest or weed control at 0.8 g/ha: 33%

## O=C(NC(=O)c1c(F)cccc1F)Nc1ccc(Oc2ccc(C(F)(F)F)cc2Cl)cc1F [flufenoxuron]
Spodoptera frugiperda; [6]
  pest or weed control at 100 g/ha: 17%
Spodoptera frugiperda; [1]
  pest or weed control at 0.8 g/ha: 67%
Phaedon cochleariae; [7]
  pest or weed control at 100 g/ha: 0%

## N#C/N=C1\SCCN1Cc1ccc(Cl)nc1 [thiacloprid]
Spodoptera frugiperda; [1]
  pest or weed control at 20 g/ha: 50%
Myzus persicae; [8]
  pest or weed control at 0.16 g/ha: 0%
Phaedon cochleariae; [5]
  pest or weed control at 20 g/ha: 50%

## CCOP(=S)(OCC)Oc1nc(Cl)c(Cl)cc1Cl [chlorpyrifos]
Spodoptera frugiperda; [9]
  Kill in % after 6 d: 33%
Myzus persicae; single active compound, 0.16 g/ha, 6 d
  Kill in % after 6 d: 0%
Myzus persicae; [10]
  Kill in % after 6 d: 0%

## CC[S+]([O-])c1c(C#N)nn(-c2c(Cl)cc(C(F)(F)F)cc2Cl)c1N (centres unmarked) [ethiprole]
Myzus persicae; [1]
  pest or weed control at 0.8 g/ha: 0%

## CN1CN(C)/C(=N\[N+](=O)[O-])N(Cc2cnc(Cl)s2)C1 [AKD 1022]
Phaedon cochleariae; [10]
  Kill in % after 6 d: 0%

## Cc1cc(C(F)(C(F)(F)F)C(F)(F)F)ccc1NC(=O)c1cccc(I)c1C(=O)NC(C)(C)CS(C)(=O)=O [flubendiamid, flubendiamide]
Spodoptera frugiperda; [1]
  pest or weed control at 0.8 g/ha: 67%
Myzus persicae; [8]
  pest or weed control at 0.8 g/ha: 0%
  pest or weed control at 4 g/ha: 0%
Phaedon cochleariae; [5]
  pest or weed control at 20 g/ha: 50%

## O=C(NC(=O)c1c(F)cccc1F)Nc1cc(Cl)c(OC(F)(F)C(F)C(F)(F)F)cc1Cl (centres unmarked) [lufenuron]
Spodoptera frugiperda; [6]
  pest or weed control at 100 g/ha: 0%
Phaedon cochleariae; 48 h, single active compound, 100 g/ha, 2 d, read-out: Kill in % after 2 d
  pest or weed control at 100 g/ha: 0%

## O=[N+]([O-])/N=C1\NCCN1Cc1ccc(Cl)nc1 [imidacloprid]
Myzus persicae; [8]
  pest or weed control at 0.16 g/ha: 50%
Phaedon cochleariae; [3]
  pest or weed control at 4 g/ha: 0%
Phaedon cochleariae; [11]
  pest or weed control at 4 g/ha: 0%
Phaedon cochleariae; [5]
  pest or weed control at 20 g/ha: 50%

## Cc1cc(C(F)(C(F)(F)F)C(F)(F)F)ccc1NC(=O)c1cccc(Cl)c1C(=O)N[C@@H](C)CS(C)(=O)=O [compound II-28-2]
Spodoptera frugiperda; [12]
  pest or weed control at 0.16 g/ha: 50%
Myzus persicae; 144 h, single active compound, 0.032 g/ha, 6 d, read-out: Kill in % after 6 d
  pest or weed control at 0.032 g/ha: 0%
Phaedon cochleariae; [13]
  pest or weed control at 0.8 g/ha: 0%

## FC(F)(F)c1ccc(OCCCOc2c(Cl)cc(OCC=C(Cl)Cl)cc2Cl)nc1 [pyridalyl]
Spodoptera frugiperda; [6]
  pest or weed control at 20 g/ha: 67%

## N#Cc1ccc(CC(=NNC(=O)Nc2ccc(OC(F)(F)F)cc2)c2cccc(C(F)(F)F)c2)cc1 (mixture of isomers) [metaflumizone]
Spodoptera frugiperda; [11]
  pest or weed control at 4 g/ha: 0%

## O=C1C=C(N(Cc2ccc(Cl)nc2)CC(F)F)CO1 [compound II-29-29, 4-{[(6-chloropyrid-3-yl)methyl](2,2-difluoroethyl)amino}furan-2(5H)-one]
Myzus persicae; [1]
  pest or weed control at 0.8 g/ha: 50%
Phaedon cochleariae; [7]
  pest or weed control at 100 g/ha: 67%

## C/C(=N\C#N)N(C)Cc1ccc(Cl)nc1 [acetamiprid]
Myzus persicae; [1]
  pest or weed control at 0.032 g/ha: 0%

## Nc1nc(N)nc(NC2CC2)n1 [cyromazine]
Myzus persicae; [1]
  pest or weed control at 0.16 g/ha: 0%
  pest or weed control at 0.8 g/ha: 0%
Phaedon cochleariae; [5]
  pest or weed control at 20 g/ha: 0%

## CCCSP(=O)(OCC)Oc1ccc(Br)cc1Cl (centres unmarked) [profenofos]
Phaedon cochleariae; [4]
  pest or weed control at 20 g/ha: 50%

## CN/C(=N\[N+](=O)[O-])NCc1cnc(Cl)s1 [clothianidin]
Myzus persicae; [1]
  pest or weed control at 0.16 g/ha: 40%
Phaedon cochleariae; [11]
  pest or weed control at 4 g/ha: 50%

## CC1(C)C(C=C(Cl)Cl)C1C(=O)OC(C#N)c1cccc(Oc2ccccc2)c1 (stereo not drawn) [alpha-cypermethrin]
Myzus persicae; [1]
  pest or weed control at 0.0064 g/ha: 0%
Phaedon cochleariae; [5]
  pest or weed control at 0.16 g/ha: 0%
Phaedon cochleariae; [2]
  Kill in % after 2 d: 0%

## milbemectin
Spodoptera frugiperda; [10]
  Kill in % after 6 d: 0%
Phaedon cochleariae; [10]
  Kill in % after 6 d: 0%

## CC(C)N1C(=O)N(c2ccccc2)CS/C1=N\C(C)(C)C [buprofezin]
Myzus persicae; [8]
  pest or weed control at 4 g/ha: 0%
Phaedon cochleariae; [7]
  pest or weed control at 100 g/ha: 0%

## CNC(=O)c1cc(C#N)cc(C)c1NC(=O)c1cc(Br)nn1-c1ncccc1Cl [cyazypyr, Cyantraniliprole]
Myzus persicae; [8]
  pest or weed control at 0.16 g/ha: 0%
Phaedon cochleariae; [4]
  pest or weed control at 0.16 g/ha: 17%

## COc1cccc(C(=O)NN(C(=O)c2cc(C)cc(C)c2)C(C)(C)C)c1C [methoxyfenozide]
Spodoptera frugiperda; [1]
  pest or weed control at 4 g/ha: 50%
Myzus persicae; [1]
  pest or weed control at 0.16 g/ha: 0%
  pest or weed control at 0.8 g/ha: 0%
Phaedon cochleariae; [5]
  pest or weed control at 20 g/ha: 0%

## pyridaben
Myzus persicae; [10]
  Kill in % after 6 d: 0%
Phaedon cochleariae; [9]
  Kill in % after 6 d: 50%

## O=[N+]([O-])/N=C1\NCCN1Cc1cnc(Cl)s1 [imidaclothiz]
Phaedon cochleariae; [11]
  pest or weed control at 4 g/ha: 0%

## COP(=O)(NC(C)=O)SC (centres unmarked) [acephate]
Phaedon cochleariae; [1]
  pest or weed control at 100 g/ha: 0%

## N#Cc1nn(-c2c(Cl)cc(C(F)(F)F)cc2Cl)c(N)c1[S+]([O-])C(F)(F)F (centres unmarked) [fipronil]
Myzus persicae; [1]
  pest or weed control at 0.8 g/ha: 0%

## CNC(=O)c1cc(Cl)cc(C)c1NC(=O)c1cc(Br)nn1-c1ncccc1Cl [Rynaxapyr, Chlorantraniliprole]
Spodoptera frugiperda; [6]
  pest or weed control at 0.16 g/ha: 33%
Myzus persicae; [1]
  pest or weed control at 0.032 g/ha: 0%

## CN1COCN(Cc2cnc(Cl)s2)/C1=N/[N+](=O)[O-] [thiamethoxam]
Myzus persicae; [1]
  pest or weed control at 0.0064 g/ha: 0%
  pest or weed control at 0.032 g/ha: 0%
Phaedon cochleariae; [13]
  pest or weed control at 0.8 g/ha: 0%

## CN(Cc1ccc(Cl)nc1)C1=CC(=O)OC1 [compound II-29-28, 4-{[(6-chloropyrid-3-yl)methyl](methyl)amino}furan-2(5H)-one]
Myzus persicae; [12]
  pest or weed control at 0.16 g/ha: 0%

## N#CCNC(=O)c1cnccc1C(F)(F)F [flonicamid]
Myzus persicae; [8]
  pest or weed control at 0.8 g/ha: 0%
  pest or weed control at 4 g/ha: 20%
Myzus persicae; [1]
  pest or weed control at 0.032 g/ha: 0%
Phaedon cochleariae; [4]
  pest or weed control at 20 g/ha: 0%
Phaedon cochleariae; [13]
  pest or weed control at 0.8 g/ha: 0%
Phaedon cochleariae; [7]
  pest or weed control at 100 g/ha: 0%
